The supplement of paper PMC10307832

Legend:
Test in all cases: relative viability (nuclei count vs DMSO), 5 days (fraction); higher = more cells survive
[1] = compound: Cc1ccccc1C(C(=O)NC1CCCCC1)N(C(=O)Cn1ccnc1C)c1cccc(F)c1 [IDH-C35] + CC(=O)c1c(C)c2cnc(Nc3ccc(N4CCNCC4)cn3)nc2n(C2CCCC2)c1=O [Palbociclib] (partner 0.5 µM)
Summary of the method: (§1)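 Relative viability divides the nuclei count in treated wells by that in vehicle wells. Lung cancer cell lines were seeded in 1536-well plates, dosed by pin tool the next day, and fixed and stained after 5 days in one step with final 0.05% Triton X-100, 1% formaldehyde and 1 ug/ml Hoechst. Dosing was a single drug or a fixed anchor-drug dose plus five library-drug doses (not always all listed) in √10 steps, and values are medians of duplicate plates imaged at 4×.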

[2] = compound: Cc1ccccc1C(C(=O)NC1CCCCC1)N(C(=O)Cn1ccnc1C)c1cccc(F)c1 [IDH-C35] + NC(=O)Nc1cc(-c2cccc(F)c2)sc1C(=O)N[C@H]1CCCNC1 [AZD7762] (partner 0.2 µM)
Summary of the method: as §1

[3] = compound: CC1=C(C(=NN1)C)CC2=C(C3=C(S2)N(C(=O)N(C3=O)C)CC(C)C)C(=O)N4C[C@@H](CO4)O + Cc1nc(NC(=O)N2CCC[C@H]2C(N)=O)sc1-c1ccnc(C(C)(C)C(F)(F)F)c1 [Alpelisib] (partner 2 µM)
Summary of the method: as §1

[4] = compound: Cc1ccccc1C(C(=O)NC1CCCCC1)N(C(=O)Cn1ccnc1C)c1cccc(F)c1 [IDH-C35] + CC(C)C[C@H](NC(=O)[C@H](Cc1ccccc1)NC(=O)c1cnccn1)B(O)O [Bortezomib] (partner 0.002 µM)
Summary of the method: as §1

Cell Line	relative viability ([1]; first compound 0.08 µM)	relative viability ([1]; first compound 0.253 µM)	relative viability ([1]; first compound 0.8 µM)	relative viability ([1]; first compound 2.53 µM)	relative viability ([1]; first compound 8 µM)	relative viability ([2]; first compound 0.08 µM)	relative viability ([2]; first compound 0.253 µM)	relative viability ([2]; first compound 0.8 µM)	relative viability ([2]; first compound 2.53 µM)	relative viability ([2]; first compound 8 µM)	relative viability ([3]; first compound 0.0025 µM)	relative viability ([3]; first compound 0.007906 µM)	relative viability ([3]; first compound 0.025 µM)	relative viability ([3]; first compound 0.07906 µM)	relative viability ([3]; first compound 0.25 µM)	relative viability ([4]; first compound 0.08 µM)	relative viability ([4]; first compound 0.253 µM)	relative viability ([4]; first compound 0.8 µM)	relative viability ([4]; first compound 2.53 µM)	relative viability ([4]; first compound 8 µM)
EMC-BAC-2	0.522	0.505	0.563	0.543	0.497	1.1	1.12	1.16	1.18	1.16	0.809	0.854	0.721	0.691	0.814	1.01	1.08	1.13	1.09	1.11
LU99A	0.38	0.418	0.394	0.398	0.403	0.326	0.398	0.396	0.335	0.36	0.559	0.589	0.581	0.568	0.611	1.14	1.1	1.1	1.05	1.16
ABC-1	0.765	0.819	0.491	0.785	0.824	0.779	0.874	0.739	0.744	1.01	1.04	1.07	1.14	1.01	0.944	0.391	0.306	0.299	0.339	0.362
NCI-H2347	0.432	0.469	0.42	0.475	0.448	0.781	0.799	0.884	0.718	0.658	1.16	1.01	1.11	0.964	0.964	0.912	1.02	0.929	1.08	0.878
NCI-H1993	0.649	0.504	0.654	0.617	0.666	0.755	0.749	0.755	0.784	0.713	0.69	0.608	0.719	0.615	0.722	1.07	1.03	1.16	1.19	1.24
NCI-H322M	0.523	0.48	0.493	0.493	0.49	0.532	0.65	0.476	0.538	0.546	0.769	0.793	0.866	0.831	0.748	1.22	1.17	1.15	1.21	1.27
NCI-H838	0.24	0.223	0.229	0.22	0.211	1.09	0.922	0.918	0.953	0.925	1.05	1.05	0.989	0.967	0.974	1.06	0.758	0.668	1.1	1.08
HARA	0.222	0.298	0.268	0.311	0.234	0.362	0.422	0.318	0.22	0.383	1.01	0.922	0.837	0.768	0.801	1.18	1.04	1.13	1.15	1.05
NCI-H2087	0.225	0.211	0.24	0.308	0.228	1.39	1.32	1.16	1.23	1.36	0.952	1.03	1.12	1.31	1.18	0.846	0.959	0.805	0.863	0.654
NCI-H1437	0.346	0.313	0.284	0.316	0.294	1.09	1.12	1.17	1.06	1.08	0.993	1	0.946	0.972	1.06	0.629	0.456	0.451	0.639	0.548
NCI-H1792	0.711	0.609	0.646	0.679	0.673	0.795	0.725	0.657	0.719	0.609	0.82	0.624	0.699	0.58	0.555	0.921	0.906	0.95	0.909	0.983
NCI-H650	0.311	0.343	0.339	–	0.283	1.04	1.26	1.13	–	0.97	1.28	1.11	0.972	1	1.18	0.774	0.93	0.755	–	0.861
201T	0.361	0.375	0.346	0.351	0.343	0.62	0.638	0.615	0.514	0.603	1.04	0.995	0.996	0.971	0.949	1.09	1.1	1.08	1.09	1.09
HCC-44	0.973	0.965	0.987	0.951	0.962	1	0.982	0.999	1.03	1.01	0.817	0.851	0.798	0.795	0.777	0.899	0.934	0.88	0.86	0.843
H3255	0.315	0.281	0.337	0.305	0.326	0.814	0.947	0.924	0.88	0.829	0.768	0.676	0.697	0.759	0.736	0.682	0.856	0.816	0.863	1.05
NCI-H647	0.47	0.433	0.399	0.347	0.397	0.489	0.488	0.424	0.42	0.418	1.16	1.03	1.19	1.32	1.75	1.08	0.805	0.989	1.19	0.889

Cell Line	relative viability ([1]; first compound 0.08 µM)	relative viability ([1]; first compound 0.253 µM)	relative viability ([1]; first compound 0.8 µM)	relative viability ([1]; first compound 2.53 µM)	relative viability ([1]; first compound 8 µM)	relative viability ([2]; first compound 0.08 µM)	relative viability ([2]; first compound 0.253 µM)	relative viability ([2]; first compound 0.8 µM)	relative viability ([2]; first compound 2.53 µM)	relative viability ([2]; first compound 8 µM)	relative viability ([3]; first compound 0.0025 µM)	relative viability ([3]; first compound 0.007906 µM)	relative viability ([3]; first compound 0.025 µM)	relative viability ([3]; first compound 0.07906 µM)	relative viability ([3]; first compound 0.25 µM)	relative viability ([4]; first compound 0.08 µM)	relative viability ([4]; first compound 0.253 µM)	relative viability ([4]; first compound 0.8 µM)	relative viability ([4]; first compound 2.53 µM)	relative viability ([4]; first compound 8 µM)
NCI-H23	0.55	0.494	0.43	0.525	0.538	0.239	0.253	0.229	0.359	0.272	0.823	0.767	0.666	0.634	0.892	0.977	0.836	1.07	1.13	0.94
NCI-H460	0.23	0.231	0.194	0.233	0.12	0.623	0.663	0.609	0.586	0.578	0.721	0.493	0.575	0.492	0.571	1.2	1.18	1.08	1.11	1.12
EKVX	0.402	0.365	0.385	0.356	0.373	0.75	0.819	0.725	0.803	0.756	0.906	1.07	0.835	0.923	0.734	1.18	0.995	0.995	1.04	0.993
EPLC-272H	0.294	0.347	0.353	–	0.316	0.387	0.266	0.215	–	0.305	0.99	0.943	0.99	0.899	0.829	0.906	0.962	1.05	–	0.856
NCI-H2126	0.349	0.362	0.333	0.351	0.359	0.983	0.96	0.983	0.927	0.946	0.773	0.847	0.732	0.736	0.682	1.14	1.12	1.15	1.09	1.07
LXF-289	0.574	0.584	0.591	0.604	0.583	1.1	1.06	1.13	1.06	1.19	1.01	1.01	1.03	1.01	1.07	0.984	1	0.941	0.999	0.955
NCI-H2405	0.538	0.512	0.525	0.561	0.525	0.857	0.771	0.815	0.913	0.768	0.735	0.688	–	0.78	0.669	1	1	0.97	0.972	0.875
NCI-H1755	0.463	0.412	0.438	0.466	0.401	0.47	0.574	0.453	0.452	0.462	0.963	1.03	0.898	0.849	1.02	0.885	1.04	0.881	0.971	0.933
HCC-78	0.462	0.437	0.439	0.494	0.553	0.584	0.66	0.615	0.738	0.732	0.409	0.343	0.315	0.319	0.299	0.581	0.521	0.587	0.563	0.446
LOU-NH91	0.553	0.558	0.54	0.551	0.519	0.805	0.73	0.753	0.765	0.815	0.734	0.626	0.791	0.799	0.708	0.574	0.485	0.519	0.527	0.502
NCI-H3122	0.183	0.178	0.186	0.187	0.182	1.02	0.996	1.02	0.987	1.03	0.813	0.816	0.788	0.783	0.706	1.1	1.01	0.985	1.02	1.02
HCC-827	0.475	0.483	0.397	0.562	0.472	0.218	0.266	0.221	0.206	0.228	1.01	1.01	0.962	0.93	0.939	1.07	1.02	1.07	1.08	1.01
NCI-H1975	0.642	0.653	0.606	0.67	0.56	0.755	0.75	0.766	0.818	0.793	0.668	0.538	0.723	0.719	0.745	0.383	0.376	0.421	0.354	0.315
NCI-H1651	0.499	0.505	0.523	0.527	0.545	0.454	0.518	0.463	0.438	0.413	1.07	1.02	0.923	0.961	0.945	0.884	0.999	0.878	0.992	0.876
NCI-H441	0.183	0.238	0.254	0.242	0.224	1.39	1.31	1.09	1.21	0.98	0.83	0.602	0.616	1.06	0.902	0.524	–	0.617	0.508	0.447
LCLC-103H	0.498	0.483	0.532	0.518	0.484	0.831	0.792	0.81	0.779	0.829	1.06	1	0.959	0.957	0.896	1.09	1.14	1.07	0.98	0.973
